# Like-named read-outs stand apart in the source and are kept apart here.
# Assays:
# in vitro = test: in vitro
# Method: The PAMPA-BBB assay was conducted according to the methodology followed by Di et al., with some modifications as described below ([15]). First, the BBB solution was prepared by dissolving 8 mg of PBL and 4 mg of cholesterol in 600 μl of n-dodecane. The initial donor solution was prepared by mixing 1 ml of extract (10 mg ml^−1 in EtOH) with 1 ml of buffer (PBS, pH = 7.4, 10 mM). The filter membrane of the donor plate was carefully coated with 5 μl of BBB solution. The acceptor plate was filled with 350 μl of buffer, and the donor plate was carefully assembled over the acceptor plate like a “sandwich.” Finally, the donor plate was filled with 350 μl of donor solution, covered, and incubated for 4 h at 37°C in the dark. After incubation time, 300 μl of the solution was taken from both plates, transferred to separate vials, and dried in the SpeedVac system at 40°C and 13 mbar pressure. Dried acceptor and donor solution were dissolved in 50 μl of pure EtOH before subjecting to UHPLC-Q-TOF-MS analysis. Permeability across in vitro BBB of the bioactive compound was measured according to Equation (1) ([25]), with some modifications in concentration rates.
# (1) Pe=-ln[1-CA(t)/Ce]/A^*(1/VD+1/VA)^*t
# Cequilibrium was calculated according to the following equation ([2]):
# (2) Cequilibrium=[CD(t)*VD+CA(t)*VA]/(VD+VA)
# [1] = ref PubChem database, cited from earlier work
# [2] = PAMPA, pH 7.4, PAMPA-BBB log Pe (cm s−1), compound within RSFE extract, 4 h, 37°C, PBS pH 7.4
# [3] = compounds of RSFE extract, octanol-water partition coefficient
# [4] = compound within LPLE (Nothofagus pumilio, lenga PLE extract), classes based on Könczöl et al.
# [5] = compounds identified in LPLE extract
# [6] = PAMPA, pH 7.4, PAMPA-BBB log Pe, compound within LPLE (Nothofagus pumilio, lenga PLE extract), N.D = not detected in acceptor
# [7] = compound within RSFE extract, 4 h, 37°C, PBS pH 7.4
molecule,measurement,setting,value
O=C(O)[C@]1(O)C[C@@H](O)[C@@H](O)[C@H](O)C1 [Quinic acid],Cross BBB potential,in vitro; PAMPA,-
same,Papp at 4 h,in vitro; [2],6.03 ×10⁻⁶ cm/s
same,Papp at 4 h,"in vitro; PAMPA, pH 7.4, PAMPA-BBB log Pe (cm s−1), compound within T33 extract, 4 h, 37°C, PBS pH 7.4",3.63 ×10⁻⁶ cm/s
same,Log P,[1]; compounds of T33 extract,−2.4
CC(C)c1cc2c(c(O)c1O)[C@@]13CCCC(C)(C)[C@@H]1[C@H](OC3=O)[C@H]2O [Rosmanol],Papp at 4 h,in vitro; [2],145 ×10⁻⁶ cm/s
same,Cross BBB potential,in vitro; compound within RSFE extract,+++ (log Pe > −4.5)
same,Log P,[1]; [3],3.4
CC(C)c1cc2c(c(O)c1O)C(=O)C1CCCC(C)(C)C1CC2 (stereo not drawn) [Rosmaridiphenol],Cross BBB potential,in vitro; PAMPA,+
same,PAMPA-BBB log Pe (cm s−1),"in vitro; PAMPA, 4 h, pH 7.4",−5.55 cm s−1
same,Log P,[1]; [3],5.9
CC(C)C1=Cc2ccc3c(c2C(=O)C1=O)CCCC3(C)C [Rosmariquinone],Cross BBB potential,in vitro; PAMPA,++
same,PAMPA-BBB log Pe (cm s−1),"in vitro; PAMPA, 4 h, pH 7.4",−5.00 cm s−1
same,Log P,[1]; [3],4.9
O=C(O)c1cc(O)c(O)c(Oc2c(O)c(=O)c3oc(O)c4cc(O)c(=O)c5oc(O)c2c3c45)c1 [Sanguisorbic acid dilactone],Cross BBB potential,in vitro; [4],-
same,Log P,[1]; [5],−0.4
same,Log P,[1]; compounds of ASFE extract,−0.4
COc1cc(/C=C/C=O)cc(OC)c1O [Sinapaldehyde],Cross BBB potential,in vitro; compound within ASFE extract,-
same,Log P,[1]; [5],1.4
same,Log P,[1]; compounds of ASFE extract,1.4
COc1cc(/C=C/C(=O)O)cc(OC)c1O [Sinapic acid],Cross BBB potential,in vitro; compound within ASFE extract,-
same,Cross BBB potential,in vitro; compound within KD extract,-
same,Cross BBB potential,in vitro; compound within T33 extract,-
same,Log P,[1]; [5],1.5
same,Log P,[1]; compounds of ASFE extract,1.5
same,Log P,[1]; compounds of KD extract,1.5
same,Log P,[1]; compounds of T33 extract,1.5
CC(C)c1cc2c(cc1O)[C@@]1(C)CCCC(C)(C)[C@@H]1CC2=O [Sugiol],Cross BBB potential,in vitro; PAMPA,++
same,Papp at 4 h,"in vitro; PAMPA, pH 7.4, PAMPA-BBB log Pe (cm s−1)",4.57 ×10⁻⁶ cm/s
same,Log P,[1]; [3],5.6
COc1cc(C=O)cc(OC)c1O [Syringaldehyde],Papp,in vitro; [6],13.5 ×10⁻⁶ cm/s
same,Log P,[1]; [5],0.1
same,Log P,[1]; compounds of T33 extract,1.1
COc1cc(C(=O)O)cc(OC)c1O [Syringic acid],Papp at 4 h,in vitro; [6],0.145 ×10⁻⁶ cm/s
same,Cross BBB potential,in vitro; compound within RSFE extract,-
same,Log P,[1]; [5],1.0
same,Log P,[1]; compounds of ASFE extract,1.0
same,Log P,[1]; compounds of KD extract,1.0
same,Log P,[1]; [3],1.0
Oc1ccc(/C=C/c2cc(O)cc(O)c2)cc1 [Trans-resveratrol],Cross BBB potential,in vitro; PAMPA,-
same,Log P,[1]; [5],2.5
same,Log P,[1]; compounds of ASFE extract,2.5
"CCC(O)C1CC(C)C2(CC(=O)C3(C)C4=C(CCC32C)C2(C)CCC(=O)C(C)(CO)C2CC4)O1 [Triterpene*, (23S,24S)-17,23-Epoxy-24,29-dihydroxy-27-norlanost-8-ene-3,15-dione]",Cross BBB potential,in vitro; PAMPA,++
same,PAMPA-BBB log Pe (cm s−1),"in vitro; PAMPA, 4 h, pH 7.4",−4.97 cm s−1
same,PAMPA-BBB log Pe,"in vitro; compound within LPLE (Nothofagus pumilio, lenga PLE extract), N.D = not detected in acceptor",−5.05 cm s−1
same,Log P,[1]; [5],3.6
same,Log P,[1]; compounds of ASFE extract,3.6
COc1cc(C(=O)O)ccc1O [Vanillic acid],Papp at 4 h,"in vitro; PAMPA, pH 7.4, PAMPA-BBB log Pe (cm s−1), compound within ASFE extract, 4 h, 37°C, PBS pH 7.4",2.14 ×10⁻⁶ cm/s
same,Papp at 4 h,"in vitro; PAMPA, pH 7.4, PAMPA-BBB log Pe (cm s−1), compound within KD extract, 4 h, 37°C, PBS pH 7.4",55 ×10⁻⁶ cm/s
same,Papp at 4 h,in vitro; [6],1.35 ×10⁻⁶ cm/s
same,Cross BBB potential,in vitro; compound within ASFE extract,+ (log Pe > −6.5)
same,Cross BBB potential,in vitro; compound within KD extract,+++ (log Pe > −4.5)
same,Cross BBB potential,in vitro; [4],+ (log Pe > −6.5)
same,Log P,[1]; [5],1.4
same,Log P,[1]; compounds of ASFE extract,1.4
same,Log P,[1]; compounds of KD extract,1.4
O=C(O)c1ccc(O)cc1 [p-salycilic acid],Cross BBB potential,in vitro; compound within RSFE extract,+++ (log Pe > −4.5)
same,PAMPA-BBB log Pe (cm s−1),in vitro; [7],−4.18 cm s−1
same,Cross BBB potential,in vitro; compound within T33 extract,++ (log Pe > −5.5)
same,PAMPA-BBB log Pe (cm s−1),"in vitro; compound within T33 extract, 4 h, 37°C, PBS pH 7.4",−4.75 cm s−1
same,Log P,[1]; [3],1.6
Oc1ccc(/C=C/c2cc(O)cc3c2[C@@H](c2cc(O)cc(O)c2)[C@H](c2ccc(O)cc2)O3)cc1 [ε-Viniferin],Cross BBB potential,in vitro; compound within ASFE extract,-
same,Cross BBB potential,in vitro; [4],-
same,Log P,[1]; [5],5.4
same,Log P,[1]; compounds of ASFE extract,5.4
"Bersaldegenin-1,3,5-orthoacetate",Cross BBB potential,in vitro; compound within KD extract,-
same,Log P,[1]; compounds of KD extract,4.87
Caffeoylshikimic acid,Cross BBB potential,in vitro; PAMPA,++
same,PAMPA-BBB log Pe (cm s−1),"in vitro; PAMPA, 4 h, pH 7.4",−5.46 cm s−1
same,Log P,[1]; compounds of T33 extract,0.9
Desdimethyl-octahydro-iso- cohumulone,Cross BBB potential,in vitro; compound within RSFE extract,+++ (log Pe > −4.5)
same,PAMPA-BBB log Pe (cm s−1),in vitro; [7],−4.30 cm s−1
same,Log P,[1]; [3],3.8
Kalandaigremoside B,Cross BBB potential,in vitro; compound within KD extract,-
same,Log P,[1]; compounds of KD extract,7.2
Kalandaigremoside C,Cross BBB potential,in vitro; compound within KD extract,-
same,Log P,[1]; compounds of KD extract,7.2
Kalandaigremoside F,Cross BBB potential,in vitro; compound within KD extract,-
same,Log P,[1]; compounds of KD extract,7.2

# Reference: article PMC9243654 (Frontiers in Nutrition, 2022)
